This note sets out measurements from PubChem BioAssay (NCI).

Structures are written as SMILES.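 How tested: cells in 96-well plates exposed to compound for 48 hours at five concentrations. GI50 = concentration required for 50% inhibition of growth. The concentration for full growth arrest is given as TGI.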

Among the test systems are MOLT-4 leukemia; RPMI-8226 leukemia; PC-3 prostate; SNB-75 CNS; DU-145 prostate; SN12C renal; OVCAR-8 ovarian; SK-OV-3 ovarian; M19-MEL melanoma.
Common to all, as to assay: growth of human tumour cells (NCI), 48 h

With `CN1CCN(c2ccc(Nc3nc(N)c(C(=O)c4ccc5c(c4)OCCO5)s3)cc2)CC1`, the GI50 was 1.89 µM in the test on MOLT-4 leukemia; 3.85 µM in the test with RPMI-8226 leukemia; 1.77 µM in the test with PC-3 prostate; 2.28 µM in the test on SNB-75 CNS; 4.34 µM in the test with DU-145 prostate; 3.33 µM in the test on SN12C renal. In addition, the results for the GI50 in the test on OVCAR-8 ovarian and in the test with SK-OV-3 ovarian were 5.94 µM and 4.36 µM, respectively. Also, the TGI in the test on MOLT-4 leukemia was 10 µM; in the test on RPMI-8226 leukemia, 11.6 µM; in the test with PC-3 prostate it was 8.47 µM; in the test on SNB-75 CNS, 6 µM; in the test with DU-145 prostate it was 16.5 µM; in the test on SN12C renal it was over 25 µM. Moreover, the TGI was 16.7 µM in the test with OVCAR-8 ovarian and 10.6 µM in the test on SK-OV-3 ovarian.

As to `C[C@@H]1Cc2c([nH]c3ccccc23)[C@@H](c2c(F)cc(NC3CN(CCCF)C3)cc2F)N1CC(F)(F)CO`, the GI50 in the test with MOLT-4 leukemia was 3.91 µM; in the test on RPMI-8226 leukemia, 2.82 µM; in the test on PC-3 prostate, 2.35 µM; in the test on SNB-75 CNS, 4.92 µM; in the test on DU-145 prostate, 6.52 µM; in the test on SN12C renal, 9.69 µM. The GI50 in the test on OVCAR-8 ovarian was 11.7 µM; in the test with SK-OV-3 ovarian, 14.4 µM. For the same compound, the TGI in the test with MOLT-4 leukemia is 20.6 µM; in the test with RPMI-8226 leukemia, 14.1 µM; in the test with PC-3 prostate, 9.67 µM; with SNB-75 CNS, 20.5 µM; with DU-145 prostate, 20.2 µM; with SN12C renal, 23.1 µM. Further, the figures for the TGI in the test with OVCAR-8 ovarian and in the test with SK-OV-3 ovarian were 33 µM and 28.4 µM, respectively.

In the case of `O=C(Cc1nc2ccccc2s1)C(=O)Nc1cccc(Cl)c1`, the TGI in the test with RPMI-8226 leukemia, with SNB-75 CNS, with SN12C renal, with OVCAR-8 ovarian, in the test on SK-OV-3 ovarian and in the test on M19-MEL melanoma was over 100 µM in each case.

Turning to `COC1=CC(=O)C(OC)=C(OC)C1=O`, the GI50 was 2.07 µM in the test on MOLT-4 leukemia; 14.7 µM in the test with RPMI-8226 leukemia; 14.9 µM in the test on PC-3 prostate; 12.1 µM in the test on SNB-75 CNS; 16 µM in the test on DU-145 prostate; 15.1 µM with SN12C renal. Besides, the GI50 is 15.5 µM in the test with OVCAR-8 ovarian and 72.9 µM with SK-OV-3 ovarian. The TGI amounted to 5.5 µM in the test with MOLT-4 leukemia; 42.9 µM with RPMI-8226 leukemia; 32.8 µM in the test with PC-3 prostate; 25.6 µM in the test on SNB-75 CNS; 29.7 µM in the test on DU-145 prostate; 28.8 µM with SN12C renal. For the same compound, the TGI is 30.7 µM in the test with OVCAR-8 ovarian and over 100 µM in the test with SK-OV-3 ovarian.

For the compound `COC(=O)Nc1nc2ccc(C(=O)c3ccc(N(C)C4COC4)cc3)cc2[nH]1`, the GI50 with MOLT-4 leukemia was 0.672 µM; in the test with RPMI-8226 leukemia it was 0.369 µM; in the test on PC-3 prostate it was 0.379 µM; in the test on SNB-75 CNS, 0.227 µM; with DU-145 prostate, 0.392 µM; with SN12C renal, 0.561 µM. Also, the GI50 is 0.482 µM in the test with OVCAR-8 ovarian and 0.536 µM in the test on SK-OV-3 ovarian. For the same compound, the TGI with MOLT-4 leukemia was over 100 µM; in the test on RPMI-8226 leukemia it was over 47.5 µM; with PC-3 prostate, over 100 µM; in the test with SNB-75 CNS it was over 100 µM; in the test with DU-145 prostate it was over 100 µM; in the test with SN12C renal, over 100 µM. The TGI in the test with OVCAR-8 ovarian and with SK-OV-3 ovarian was over 100 µM each time.

Regarding `CC(=O)O[C@@H]1[C@@H](O)C2=C3[C@]4(C)[C@@H]1C(C)(C)C(=O)C[C@@H]4[C@]3(O)[C@H](OC(C)=O)[C@@]1(C[C@@H]1C)C2=O`, the TGI in the test on MOLT-4 leukemia stood at 72.4 µM; in the test with RPMI-8226 leukemia, 98.4 µM; in the test with PC-3 prostate, 48.9 µM; in the test on SNB-75 CNS, 75.4 µM; in the test on DU-145 prostate it was 33.8 µM; in the test on SN12C renal, 37.1 µM. The values for the TGI in the test with OVCAR-8 ovarian and in the test on SK-OV-3 ovarian were 34.2 µM and 52.6 µM, respectively.

As for `Nc1ccccc1NC(=O)c1ccc(CCCC(=O)Nc2ccc(C3CC3N)cc2)cc1` (configuration not stated), the GI50 was 1.87 µM with MOLT-4 leukemia; 2.79 µM with RPMI-8226 leukemia; 2.32 µM with PC-3 prostate; 1.89 µM with SNB-75 CNS; 2.66 µM in the test with DU-145 prostate; 3.62 µM in the test on SN12C renal. Further, the GI50 in the test on OVCAR-8 ovarian was 1.32 µM; in the test with SK-OV-3 ovarian, 2.15 µM. The TGI in the test with MOLT-4 leukemia is over 100 µM; in the test on RPMI-8226 leukemia, 24.2 µM; in the test on PC-3 prostate it was 95.3 µM; in the test on SNB-75 CNS, 50.4 µM; in the test with DU-145 prostate, 18.5 µM; in the test with SN12C renal, over 100 µM. For the same compound, the TGI in the test with OVCAR-8 ovarian was over 100 µM; in the test on SK-OV-3 ovarian, 42.4 µM.

For the compound `S=C(Nc1ccc(Cl)cc1)Nc1ccc(-c2nc3ccccc3o2)cc1`, the GI50 is 18.5 µM in the test on MOLT-4 leukemia; 3.8 µM with RPMI-8226 leukemia; 15.4 µM in the test on PC-3 prostate; 37.7 µM in the test on SNB-75 CNS; 17 µM in the test with DU-145 prostate; 13.7 µM with SN12C renal. Also, the GI50 in the test with OVCAR-8 ovarian was 21 µM; with SK-OV-3 ovarian, 32.3 µM. Moreover, the TGI in the test on MOLT-4 leukemia was over 100 µM; in the test on RPMI-8226 leukemia, 23.2 µM; in the test on PC-3 prostate, 51.4 µM; in the test with SNB-75 CNS, 72.2 µM; in the test on DU-145 prostate, 38.6 µM; in the test with SN12C renal, 28.8 µM. In addition, the TGI with OVCAR-8 ovarian is 49.7 µM; in the test on SK-OV-3 ovarian, over 100 µM.

For `CC(=O)N1c2ccccc2NC2=C(C(=O)N(Cc3ccccc3)C2(C)C)C1c1ccco1` (configuration not stated), the GI50 with MOLT-4 leukemia was 0.786 µM; in the test on RPMI-8226 leukemia, 0.758 µM; in the test on PC-3 prostate, 0.687 µM; in the test on SNB-75 CNS, 0.841 µM; in the test on DU-145 prostate, 0.115 µM; in the test on SN12C renal, 0.589 µM. Also, the figures for the GI50 in the test with OVCAR-8 ovarian and in the test on SK-OV-3 ovarian were 1.24 µM and 0.786 µM, respectively. The TGI in the test with MOLT-4 leukemia was over 25 µM; in the test on RPMI-8226 leukemia it was over 25 µM; with PC-3 prostate, over 25 µM; with SNB-75 CNS it was over 5.78 µM; in the test on DU-145 prostate it was over 25 µM; with SN12C renal it was over 25 µM. For the same compound, the TGI with OVCAR-8 ovarian and with SK-OV-3 ovarian was over 25 µM each time.

Consider `Fc1ccc(-c2ncn(C3CCNCC3)c2-c2ccnc(Oc3ccc(F)c(F)c3)n2)cc1`, for which the GI50 with MOLT-4 leukemia is 8.34 µM; in the test on RPMI-8226 leukemia it was 12.5 µM; in the test on PC-3 prostate, 9.05 µM; in the test with SNB-75 CNS, 8.64 µM; in the test with DU-145 prostate, 8.78 µM; with SN12C renal, 6.24 µM. Moreover, the GI50 in the test on OVCAR-8 ovarian was 4.96 µM; in the test with SK-OV-3 ovarian it was 7.54 µM. For the same compound, the TGI in the test on MOLT-4 leukemia was over 19.1 µM; with RPMI-8226 leukemia, over 23.7 µM; in the test with PC-3 prostate, over 19.9 µM; in the test with SNB-75 CNS, over 25 µM; with DU-145 prostate, over 16.7 µM; in the test on SN12C renal, over 14.6 µM. Moreover, the TGI in the test on OVCAR-8 ovarian was 10.9 µM; in the test with SK-OV-3 ovarian, over 16.4 µM.
